By solubility is commonly meant the concentration that dissolves in the medium under given conditions. Low values mean a poorly soluble substance, high ones a readily soluble substance. As a reminder, the pKi is the Ki on a negative log10 scale, so that one unit is a factor of ten. A high value points to a low Ki.

From patent publication US9345703B2, “Kappa opioid receptor effectors and uses thereof” (University of Kansas, priority 2011, dated 2016) come the findings set out here.

Series [1] is described as follows: Hepatic microsome stability, human. The settings on record: human microsomes, 1 hour. It counts as in vitro ADME. From the text: The microsomal stability assay is commonly used to rank compounds according to their metabolic stability. This assay addresses the pharmacologic question of how long the parent compound will remain circulating in plasma within the body.

A further series in a line: physchem. The method, then:
In addition to profiling the selectivity of this class of KOR ligands, basic pharmacological properties were assessed.

For another series, the target named is KOP receptor (Homo sapiens, UniProt P41145). The experiment in a line: 35S-GTPγS coupling, inhibition. Format: biochemical. On the technique in general: Binding of GTPγS marks nucleotide exchange on a G protein.
A short description of series [2]: Stability in PBS at room temperature. It counts as physicochemical. The note with it: 48 hours, <0.1% DMSO.
A further series addresses D5 (Homo sapiens, UniProt P21918). The experiment in a line: PDSP radioligand binding assay. The method, then: (§1) The compound was initially screened in radioligand binding assays at a constant concentration (10 μM) to identify possible activity of the compound. Results showing significant activity in the initial screen were selected for Ki determinations.
(§2) As a representative of the Chemotype II series, the MLPCN probe molecule 2{8} was subjected to a binding assay panel of 44 GPCR and other molecular targets by the Pyschoactive Drug Screening Program (PDSP) (Table 10). The compound was initially screened in a radioligand binding assay at a constant concentration (10 μM) to identify possible activity of the compound. Results showing significant activity in the initial screen were selected for Ki determinations.

For a further series, the target named is H3 (Homo sapiens, UniProt Q9Y5N1). The experiment in a line: PDSP radioligand binding assay. The method, then: as §1, §2
A further series deals with M2 (Homo sapiens, UniProt P08172). In words: PDSP radioligand binding assay. As for the experimental part: as §1, §2
A further series has as its target 5ht1d (Homo sapiens, UniProt P28221). In words: PDSP radioligand binding assay. As for the experimental part: as §1, §2
Another series deals with Alpha1B (Homo sapiens, UniProt P35368). In words: PDSP radioligand binding assay. As for the experimental part: as §1, §2
The next series addresses Beta1 (Homo sapiens, UniProt P08588). In words: PDSP radioligand binding assay. As for the experimental part:
as §1, §2

The target of a further series is 5ht1b (Homo sapiens, UniProt P28222). The experiment in a line: PDSP radioligand binding assay. The method, then:
as §1, §2

A further series has as its target Alpha2B (Homo sapiens, UniProt P18089). The experiment in a line: PDSP radioligand binding assay. The method, then:
as §1, §2

The next series has as its target 5ht5a (Homo sapiens, UniProt P47898). The experiment in a line: PDSP radioligand binding assay. The method, then:
as §1, §2

In the next series the target is D2 (Homo sapiens, UniProt P14416). In words: PDSP radioligand binding assay. As for the experimental part: as §1, §2
The target of a further series is Alpha2C (Homo sapiens, UniProt P18825). The experiment in a line: PDSP radioligand binding assay. The method, then: as §1, §2
Another series has as its target Beta3 (Homo sapiens, UniProt P13945). The experiment in a line: PDSP radioligand binding assay. The method, then:
as §1, §2

In the next series the target is 5ht1a (Homo sapiens, UniProt P08908). The experiment in a line: PDSP radioligand binding assay. As for the experimental part: as §1, §2
For a further series, the target named is Alpha1A (Homo sapiens, UniProt P35348). The experiment in a line: PDSP radioligand binding assay. The method, then: as §1, §2
The next series addresses 5ht2a (Homo sapiens, UniProt P28223). In words: PDSP radioligand binding assay. As for the experimental part:
as §1, §2

A further series in a line: Plasma stability, human. Format: in vitro ADME. From the text:
Plasma stability is a measure of the stability of small molecules and peptides in plasma and is an important parameter that can strongly influence the in vivo efficacy of a test compound. Drug candidates are exposed in plasma to enzymatic processes (proteinases, esterases), and they can undergo intramolecular rearrangement or bind irreversibly (covalently) to proteins.

The conditions of series [3]: pH 7.4. The method, then:
PAMPA is used as an in vitro model of passive, transcellular permeability. An artificial membrane immobilized on a filter is placed between a donor and acceptor compartment. At the start of the test, drug is introduced in the donor compartment (at various pH). Following the permeation period, the concentrations of compound in the donor compartment and acceptor compartment are measured using UV spectroscopy.

The next series concerns the target MOR (Homo sapiens, UniProt P35372). In words: High content imaging based β-arrestin translocation assay, MOR agonist (MOR HCS). Format: cell-based. The note with it: n = 2, read-out: Average Potency MOR HCS.
The test system of series [4] is Fa2N-4 immortalized human hepatocytes. In words: Hepatocyte toxicity. The note with it: read-out: LC50; Fa2N-4 hepatocytes.
The target of the next series is DAT (Homo sapiens, UniProt Q01959). In words: PDSP radioligand binding assay. The settings on record: Table 10. The method, then: The broader selectivity of compound 1{3} was tested against additional targets and basic pharmacological properties were assessed. […] The compound was initially screened in radioligand binding assays at a constant concentration (10 μM) to identify possible activity of the compound. Results showing significant activity in the initial screen were selected for Ki determinations.
as §2

pEC50, pKi: −log10 of the molar value. In brackets after ≈: the same amount, converted by molar mass. Marks after values point to notes of the source that are not given here.

Sequence of Alpha1B (P35368 whole entry): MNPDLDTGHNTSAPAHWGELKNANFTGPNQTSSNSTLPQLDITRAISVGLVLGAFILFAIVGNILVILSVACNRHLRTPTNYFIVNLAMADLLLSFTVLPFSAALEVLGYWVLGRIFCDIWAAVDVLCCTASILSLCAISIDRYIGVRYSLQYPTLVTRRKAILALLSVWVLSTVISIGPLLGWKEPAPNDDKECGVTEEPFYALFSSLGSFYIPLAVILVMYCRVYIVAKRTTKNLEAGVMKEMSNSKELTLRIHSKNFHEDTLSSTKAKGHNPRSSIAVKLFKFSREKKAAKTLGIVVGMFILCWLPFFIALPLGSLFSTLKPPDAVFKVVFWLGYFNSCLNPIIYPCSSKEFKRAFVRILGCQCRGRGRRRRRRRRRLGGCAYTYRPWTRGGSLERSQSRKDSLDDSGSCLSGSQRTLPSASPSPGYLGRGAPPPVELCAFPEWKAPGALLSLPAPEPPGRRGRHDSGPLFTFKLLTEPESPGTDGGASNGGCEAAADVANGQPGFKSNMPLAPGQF
Sequence of 5ht1a (P08908 whole entry, species assumed): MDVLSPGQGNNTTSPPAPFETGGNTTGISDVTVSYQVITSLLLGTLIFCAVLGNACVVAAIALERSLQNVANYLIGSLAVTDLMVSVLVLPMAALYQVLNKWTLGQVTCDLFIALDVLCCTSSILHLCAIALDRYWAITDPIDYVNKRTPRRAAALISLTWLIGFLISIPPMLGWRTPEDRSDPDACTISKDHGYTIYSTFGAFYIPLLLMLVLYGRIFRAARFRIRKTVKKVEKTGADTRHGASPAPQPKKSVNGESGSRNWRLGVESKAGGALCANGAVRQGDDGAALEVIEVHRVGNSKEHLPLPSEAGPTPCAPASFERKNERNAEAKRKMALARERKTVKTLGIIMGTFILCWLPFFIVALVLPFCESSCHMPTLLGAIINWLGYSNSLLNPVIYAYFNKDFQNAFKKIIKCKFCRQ
Sequence of Beta3 (P13945 whole entry): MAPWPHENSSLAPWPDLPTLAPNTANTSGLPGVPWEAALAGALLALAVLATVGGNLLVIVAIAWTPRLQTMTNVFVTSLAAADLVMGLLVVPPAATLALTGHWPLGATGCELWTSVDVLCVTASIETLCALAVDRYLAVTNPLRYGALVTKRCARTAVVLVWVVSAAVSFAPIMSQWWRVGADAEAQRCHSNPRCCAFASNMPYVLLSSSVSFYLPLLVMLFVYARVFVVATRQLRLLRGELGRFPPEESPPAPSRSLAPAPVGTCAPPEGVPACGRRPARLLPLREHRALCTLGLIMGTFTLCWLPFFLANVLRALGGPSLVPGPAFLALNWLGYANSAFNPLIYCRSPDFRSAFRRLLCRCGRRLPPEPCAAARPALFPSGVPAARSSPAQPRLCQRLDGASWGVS
Sequence of 5ht1b (P28222 whole entry, species assumed): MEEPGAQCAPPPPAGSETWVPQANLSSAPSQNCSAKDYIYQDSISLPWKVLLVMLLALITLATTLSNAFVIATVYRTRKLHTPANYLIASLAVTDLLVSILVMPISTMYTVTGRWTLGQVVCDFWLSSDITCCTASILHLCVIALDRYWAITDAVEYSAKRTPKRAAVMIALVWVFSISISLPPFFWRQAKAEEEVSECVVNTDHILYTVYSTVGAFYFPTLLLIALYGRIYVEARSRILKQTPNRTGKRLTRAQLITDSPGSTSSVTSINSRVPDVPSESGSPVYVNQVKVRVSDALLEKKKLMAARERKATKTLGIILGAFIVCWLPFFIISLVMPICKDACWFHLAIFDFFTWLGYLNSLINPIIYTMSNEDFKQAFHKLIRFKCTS
Sequence of Beta1 (P08588 whole entry): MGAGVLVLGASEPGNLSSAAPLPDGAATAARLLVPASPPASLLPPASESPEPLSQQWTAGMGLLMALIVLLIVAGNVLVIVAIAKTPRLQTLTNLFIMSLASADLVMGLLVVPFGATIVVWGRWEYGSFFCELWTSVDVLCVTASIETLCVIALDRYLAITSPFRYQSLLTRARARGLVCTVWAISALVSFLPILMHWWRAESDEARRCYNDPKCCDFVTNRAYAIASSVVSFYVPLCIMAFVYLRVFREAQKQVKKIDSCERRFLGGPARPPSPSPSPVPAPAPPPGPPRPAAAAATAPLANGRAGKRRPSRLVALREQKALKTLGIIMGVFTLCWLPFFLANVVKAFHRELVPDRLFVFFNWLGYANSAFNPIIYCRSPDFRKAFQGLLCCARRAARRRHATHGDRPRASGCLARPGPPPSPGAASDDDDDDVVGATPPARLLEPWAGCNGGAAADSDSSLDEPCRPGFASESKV
Sequence of Alpha2B (P18089 whole entry): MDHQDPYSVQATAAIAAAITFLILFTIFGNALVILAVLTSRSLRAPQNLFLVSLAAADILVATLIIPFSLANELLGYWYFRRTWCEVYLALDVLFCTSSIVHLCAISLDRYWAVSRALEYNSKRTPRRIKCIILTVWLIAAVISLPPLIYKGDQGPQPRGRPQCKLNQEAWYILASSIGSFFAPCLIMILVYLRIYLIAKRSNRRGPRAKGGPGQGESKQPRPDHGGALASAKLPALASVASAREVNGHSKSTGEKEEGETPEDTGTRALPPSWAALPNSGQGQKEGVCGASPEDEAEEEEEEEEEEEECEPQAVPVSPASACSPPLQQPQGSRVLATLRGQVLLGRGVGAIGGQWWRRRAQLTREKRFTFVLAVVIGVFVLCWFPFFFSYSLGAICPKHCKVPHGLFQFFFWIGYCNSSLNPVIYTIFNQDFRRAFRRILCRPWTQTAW
Sequence of 5ht1d (P28221 whole entry, species assumed): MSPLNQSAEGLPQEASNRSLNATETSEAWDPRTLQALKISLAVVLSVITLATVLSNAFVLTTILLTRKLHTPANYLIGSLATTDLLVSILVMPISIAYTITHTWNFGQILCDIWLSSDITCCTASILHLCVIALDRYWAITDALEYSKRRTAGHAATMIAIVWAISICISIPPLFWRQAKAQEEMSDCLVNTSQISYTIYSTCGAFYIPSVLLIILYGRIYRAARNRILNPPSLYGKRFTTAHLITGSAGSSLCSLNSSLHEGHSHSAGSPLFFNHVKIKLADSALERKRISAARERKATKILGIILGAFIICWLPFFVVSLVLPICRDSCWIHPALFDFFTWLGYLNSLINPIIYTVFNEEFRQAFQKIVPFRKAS
Sequence of M2 (P08172 whole entry): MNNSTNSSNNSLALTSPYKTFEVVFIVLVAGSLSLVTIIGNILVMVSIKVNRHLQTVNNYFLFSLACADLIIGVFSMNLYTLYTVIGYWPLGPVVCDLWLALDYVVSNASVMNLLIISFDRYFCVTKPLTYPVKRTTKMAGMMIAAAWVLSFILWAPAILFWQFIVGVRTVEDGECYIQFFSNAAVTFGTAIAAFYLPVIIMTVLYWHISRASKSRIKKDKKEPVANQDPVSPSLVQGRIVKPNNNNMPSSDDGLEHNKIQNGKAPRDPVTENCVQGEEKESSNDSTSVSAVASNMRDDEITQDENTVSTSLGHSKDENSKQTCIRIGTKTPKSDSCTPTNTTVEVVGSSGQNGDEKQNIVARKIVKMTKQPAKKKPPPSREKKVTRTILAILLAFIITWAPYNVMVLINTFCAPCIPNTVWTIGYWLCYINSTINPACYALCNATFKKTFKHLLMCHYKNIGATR
Sequence of Alpha1A (P35348 whole entry): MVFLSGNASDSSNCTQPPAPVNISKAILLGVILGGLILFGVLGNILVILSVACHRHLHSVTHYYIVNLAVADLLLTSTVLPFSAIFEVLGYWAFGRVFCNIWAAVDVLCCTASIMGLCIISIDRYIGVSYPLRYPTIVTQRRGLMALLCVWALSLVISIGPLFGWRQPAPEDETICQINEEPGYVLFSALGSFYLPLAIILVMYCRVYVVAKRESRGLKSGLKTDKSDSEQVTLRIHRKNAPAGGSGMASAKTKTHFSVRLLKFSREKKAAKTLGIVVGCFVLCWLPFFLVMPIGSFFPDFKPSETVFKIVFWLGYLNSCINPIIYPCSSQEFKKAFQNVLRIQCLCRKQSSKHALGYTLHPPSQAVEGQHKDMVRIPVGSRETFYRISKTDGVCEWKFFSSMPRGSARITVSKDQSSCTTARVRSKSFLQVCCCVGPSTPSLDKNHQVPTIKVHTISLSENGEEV
Sequence of 5ht5a (P47898 whole entry, species assumed): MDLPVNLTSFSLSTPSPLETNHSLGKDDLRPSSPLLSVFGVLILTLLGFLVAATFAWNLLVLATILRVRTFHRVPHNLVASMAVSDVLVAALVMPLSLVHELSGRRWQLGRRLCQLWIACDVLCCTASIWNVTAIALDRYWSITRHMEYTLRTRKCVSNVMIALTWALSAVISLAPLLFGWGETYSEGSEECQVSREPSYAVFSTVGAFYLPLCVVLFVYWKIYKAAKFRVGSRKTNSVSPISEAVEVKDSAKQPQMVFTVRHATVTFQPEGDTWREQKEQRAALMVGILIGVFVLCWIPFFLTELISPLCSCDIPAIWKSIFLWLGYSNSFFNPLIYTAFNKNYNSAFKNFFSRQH
Sequence of H3 (Q9Y5N1 whole entry): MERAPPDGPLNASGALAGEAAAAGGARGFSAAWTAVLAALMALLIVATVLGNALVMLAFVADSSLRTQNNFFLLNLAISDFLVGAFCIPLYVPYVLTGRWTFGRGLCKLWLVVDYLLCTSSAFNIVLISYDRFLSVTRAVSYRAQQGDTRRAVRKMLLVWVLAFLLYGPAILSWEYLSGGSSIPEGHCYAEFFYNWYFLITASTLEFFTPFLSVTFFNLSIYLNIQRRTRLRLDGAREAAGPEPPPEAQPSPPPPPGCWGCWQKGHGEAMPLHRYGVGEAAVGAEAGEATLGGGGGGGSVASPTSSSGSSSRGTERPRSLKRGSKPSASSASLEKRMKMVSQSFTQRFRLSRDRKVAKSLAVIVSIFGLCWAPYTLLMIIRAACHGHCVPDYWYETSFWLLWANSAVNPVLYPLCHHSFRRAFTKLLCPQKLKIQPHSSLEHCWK

For `COc1ccc(N2CCN(CCCNC(=O)Cn3c(=O)c4cccn4c4c(C)ccnc43)CC2)cc1` [Compound 1{3}, N-(3-(4-(4-Methoxyphenyl)piperazin-1-yl)propyl)-2-(1-methyl-6-oxopyrido[2,3-e]pyrrolo[1,2-a]pyrazin-5(6H)-yl)acetamide], the “microsomal stability, remaining” value in series [1] came to 22%. The figures for the solubility in the series “physchem” (aqueous buffer), in “physchem” (pH 5) and in the series “physchem” (pH 6.2) were over 90 µg/mL, 96.6 µg/mL (≈ 198 µM) and 90.6 µg/mL (≈ 185 µM), respectively. In addition, the “Imax (% NBNI)” value on KOP receptor is 117 ± 5^a % NBNI. The parent compound remaining in [2] turned out to be 94.42%. In addition, the pKi was under 5.00 on D5 (Table 5); under 5.00 at H3 (Table 5); under 5.00 at M2 (Table 5); 6.15 at 5ht1d (Table 5); under 5.00 on Alpha1B (Table 5); under 5.00 on Beta1 (Table 5). Also, the pKi was under 5.00 at 5ht1b (Table 5); 5.11 on Alpha2B (Table 5); under 5.00 at 5ht5a (Table 5); 5.87 on D2 (Table 5); 6.16 at Alpha2C (Table 5); under 5.00 on Beta3 (Table 5). Besides, the pKi at 5ht1a (Table 5), on Alpha1A (Table 5) and at 5ht2a (Table 5) was under 5.00 throughout. The “plasma stability, remaining” value in the series “Plasma stability, human” (human, plasma, 3 h) amounted to 100%. In addition, the “blood brain barrier PAMPA permeability” value in series [3] was 51 ×10⁻⁶ cm/s.
Take `Clc1ccc(CSc2nnc(-c3ccccn3)n2Cc2ccco2)cc1Cl` [Compound 2{8}]: the “microsomal stability, remaining” value in series [1] turned out to be 0.03%. The “solubility in aqueous buffer” value in the series “physchem” (pH 5.0) is under 0.1 µg/mL; in the series “physchem” (pH 6.2), 0.29 µg/mL (≈ 0.695 µM); in “physchem” (pH 7.4), 0.14 µg/mL (≈ 0.335 µM). The pEC50 at MOR is under 4.49. Moreover, the CC50 in series [4] was over 50 µM. Also, the pKi on DAT was under 5.00; at D5 (Table 10), 5.15; on H3 (Table 10), under 5.00; at M2 (Table 10), under 5.00; on 5ht1d (Table 10), under 5.00; on Alpha1B (Table 10) it was under 5.00. Further, the pKi on Beta1 (Table 10) is under 5.00; on 5ht1b (Table 10) it was under 5.00; at Alpha2B (Table 10), 5.26; at 5ht5a (Table 10) it was 5.30; on D2 (Table 10), under 5.00; at Alpha2C (Table 10), 5.02. In addition, the pKi is 5.14 on Beta3 (Table 10), under 5.00 on 5ht1a (Table 10), under 5.00 at Alpha1A (Table 10) and 5.42 on 5ht2a (Table 10). Further, in the series “Plasma stability, human” (human plasma, 3 hours), the “plasma stability, remaining” value is on record as 100%.
